# Assay results published in ChEMBL document CHEMBL5579799, “Synthesis and biological evaluation of novel 18F-labeled 2,4-diaminopyrimidine derivatives for detection of ghrelin receptor in the brain” (Bioorg Med Chem Lett, 2024).
# Columns and labels:
# [1] = Ratio of drug concentration in rat brain to plasma at po administration measured after 1 hr
# [2] = biological target: Growth hormone secretagogue receptor type 1 (Homo sapiens, UniProt Q92847)
# Growth hormone secretagogue receptor type 1, sequence (Q92847 whole entry): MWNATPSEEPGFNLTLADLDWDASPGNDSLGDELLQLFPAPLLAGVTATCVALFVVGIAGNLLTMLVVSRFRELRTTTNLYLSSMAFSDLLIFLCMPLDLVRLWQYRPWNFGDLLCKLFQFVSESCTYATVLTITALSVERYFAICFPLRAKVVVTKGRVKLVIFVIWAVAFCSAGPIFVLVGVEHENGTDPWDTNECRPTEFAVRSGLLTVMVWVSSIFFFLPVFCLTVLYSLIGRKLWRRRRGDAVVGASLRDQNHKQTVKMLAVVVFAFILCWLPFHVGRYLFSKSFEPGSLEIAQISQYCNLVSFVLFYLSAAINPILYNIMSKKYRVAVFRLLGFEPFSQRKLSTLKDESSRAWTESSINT
# Description: Displacement of [125I]ghrelin from human GHSR assessed as inhibition constant by competitive binding assay
Kp at 1 h [1],Ki [2] [µM],SMILES
3.05,0.108,Nc1nc(N)c(-c2ccc(NCc3ccc(Cl)cc3)cc2)c(COCc2ccccc2)n1
–,> 5,CCc1nc(N)nc(N)c1-c1ccc(NCc2ccc(OCCF)cc2)cc1
